Laboratory results taken from ChEMBL document CHEMBL4715874, “In Vivo Screening of Xanthones from Garcinia oligantha Identified Oliganthin H as a Novel Natural Inhibitor of Convulsions” (J Nat Prod, 2020).
The source made the active and inactive calls. No cut-off for these calls is given here.

How the values were obtained:
Danio rerio [1] = organism: Danio rerio; assay: Anticonvulsant activity in AB zebra fish larvae assessed as PTZ-induced seizure activity at 6.2 uM pretreated for 6 hrs followed by PTZ-stimulation and measured every 5 mins for 30 mins (reference value: 14.13 +/- 0.004 mm); assay type: functional; conditions: time 6.5 hrs
[2] = Toxicity in AB zebra fish larvae assessed as mortality at 100 uM after 6 hrs; parameters: species or system Danio rerio; conditions: zebrafish
[3] = Neurotoxicity in AB zebra fish larvae at 100 uM after 6 hrs; assay type: toxicity, Danio rerio; conditions: zebrafish
[4] = Toxicity in AB zebra fish larvae assessed as maximum tolerated concentration after 6 hrs; parameters: species or system Danio rerio; conditions: zebrafish, read-out: MTC
[5] = Neurotoxicity in AB zebra fish larvae assessed as decrease in total swimming distance at <= MTC after 6 hrs; assay type: toxicity, Danio rerio; conditions: zebrafish
[6] = Neurotoxicity in AB zebra fish larvae assessed as increase in total swimming distance at > 12.5 uM after 6 hrs; assay type: toxicity, Danio rerio; conditions: zebrafish
Danio rerio [7] = organism: Danio rerio; assay: Anticonvulsant activity in AB zebra fish larvae assessed as reduction in PTZ-induced convulsant behavior by measuring swimming distance at 12.5 uM pretreated for 6 hrs followed by PTZ-stimulation and measured every 5 mins for 1 hr relative to control; assay type: functional; parameters: scale not given: the % may be the effect or the level left; conditions: time 7 hrs
Danio rerio [8] = organism: Danio rerio; assay: Anticonvulsant activity in AB zebra fish larvae assessed as reduction in PTZ-induced convulsant behavior by measuring swimming distance at 25 uM pretreated for 6 hrs followed by PTZ-stimulation and measured every 5 mins for 1 hr relative to control; assay type: functional; parameters: scale not given: the % may be the effect or the level left; conditions: time 7 hrs
Danio rerio [9] = organism: Danio rerio; assay: Anticonvulsant activity in AB zebra fish larvae assessed as reduction in PTZ-induced convulsant behavior by measuring swimming distance at 6.2 uM pretreated for 6 hrs followed by PTZ-stimulation and measured every 5 mins for 1 hr; assay type: functional, organism-based; conditions: time 7.0 hrs
Danio rerio [10] = organism: Danio rerio; assay: Anticonvulsant activity in AB zebra fish larvae assessed as reduction in PTZ-induced convulsant behavior by measuring lowest observed effect concentration pretreated for 6 hrs followed by PTZ-stimulation and measured every 5 mins for 1 hr; assay type: functional; conditions: time 7 hrs
[11] = Ratio of MTC for toxicity in AB zebra fish larvae to lowest observed effect concentration for Anticonvulsant activity in AB zebra fish larvae assessed as reduction in PTZ-induced convulsant behavior; parameters: species or system Danio rerio
Danio rerio [12] = organism: Danio rerio; assay: Anticonvulsant activity in AB zebra fish larvae assessed as PTZ-induced velocity at 6.2 uM pretreated for 6 hrs followed by PTZ-stimulation and measured every 5 mins for 30 mins (reference value: 0.63 +/- 0.23 mm/s); assay type: functional; conditions: time 6.5 hrs
Danio rerio [13] = organism: Danio rerio; assay: Anticonvulsant activity in AB zebra fish larvae assessed as PTZ-induced velocity at 12.5 uM pretreated for 6 hrs followed by PTZ-stimulation and measured every 5 mins for 30 mins (reference value: 0.63 +/- 0.23 mm/s); assay type: functional; conditions: time 6.5 hrs
Danio rerio [14] = organism: Danio rerio; assay: Anticonvulsant activity in AB zebra fish larvae assessed as PTZ-induced velocity at 25 uM pretreated for 6 hrs followed by PTZ-stimulation and measured every 5 mins for 30 mins (reference value: 0.63 +/- 0.23 mm/s); assay type: functional; conditions: time 6.5 hrs
Danio rerio [15] = organism: Danio rerio; assay: Anticonvulsant activity in AB zebra fish larvae assessed as PTZ-induced seizure activity at 12.5 uM pretreated for 6 hrs followed by PTZ-stimulation and measured every 5 mins for 30 mins (reference value: 14.13 +/- 0.004 mm); assay type: functional; conditions: time 6.5 hrs
Danio rerio [16] = organism: Danio rerio; assay: Anticonvulsant activity in AB zebra fish larvae assessed as PTZ-induced seizure activity at 25 uM pretreated for 6 hrs followed by PTZ-stimulation and measured every 5 mins for 30 mins (reference value: 14.13 +/- 0.004 mm); assay type: functional; conditions: time 6.5 hrs
Danio rerio [17] = organism: Danio rerio; assay: Anticonvulsant activity in AB zebra fish larvae assessed as PTZ-induced seizure duration time at 6.2 uM pretreated for 6 hrs followed by PTZ-stimulation and measured every 5 mins for 30 mins (reference value: 0.32 +/- 0.31 s); assay type: functional; conditions: time 6.5 hrs
Danio rerio [18] = organism: Danio rerio; assay: Anticonvulsant activity in AB zebra fish larvae assessed as PTZ-induced seizure duration time at 12.5 uM pretreated for 6 hrs followed by PTZ-stimulation and measured every 5 mins for 30 mins (reference value: 0.32 +/- 0.31 s); assay type: functional; conditions: time 6.5 hrs
Danio rerio [19] = organism: Danio rerio; assay: Anticonvulsant activity in AB zebra fish larvae assessed as PTZ-induced seizure duration time at 25 uM pretreated for 6 hrs followed by PTZ-stimulation and measured every 5 mins for 30 mins (reference value: 0.32 +/- 0.31 s); assay type: functional; conditions: time 6.5 hrs
Danio rerio [20] = organism: Danio rerio; assay: Anticonvulsant activity in AB zebra fish larvae assessed as PTZ-induced number of burst at 6.2 uM pretreated for 6 hrs followed by PTZ-stimulation and measured every 5 mins for 30 mins (reference value: 9.25 +/- 6.36); assay type: functional; conditions: time 6.5 hrs
Danio rerio [21] = organism: Danio rerio; assay: Anticonvulsant activity in AB zebra fish larvae assessed as PTZ-induced number of burst at 12.5 uM pretreated for 6 hrs followed by PTZ-stimulation and measured every 5 mins for 30 mins (reference value: 9.25 +/- 6.36); assay type: functional; conditions: time 6.5 hrs
Danio rerio [22] = organism: Danio rerio; assay: Anticonvulsant activity in AB zebra fish larvae assessed as PTZ-induced number of burst at 25 uM pretreated for 6 hrs followed by PTZ-stimulation and measured every 5 mins for 30 mins (reference value: 9.25 +/- 6.36); assay type: functional; conditions: time 6.5 hrs
Danio rerio [23] = organism: Danio rerio; assay: Anticonvulsant activity in AB zebra fish larvae assessed as PTZ-induced npas4a mRNA expression at 25 uM pretreated for 6 hrs followed by PTZ-stimulation and measured after 30 mins by qRT-PCR analysis (reference value: 25.34 +/- 3.28%); assay type: functional; conditions: time 6.5 hrs
Danio rerio [24] = organism: Danio rerio; assay: Anticonvulsant activity in AB zebra fish larvae assessed as PTZ-induced PYYA mRNA expression at 25 uM pretreated for 6 hrs followed by PTZ-stimulation and measured after 30 mins by qRT-PCR analysis (reference value: 18.53 +/- 4.32%); assay type: functional; conditions: time 6.5 hrs
Danio rerio [25] = organism: Danio rerio; assay: Anticonvulsant activity in AB zebra fish larvae assessed as PTZ-induced c-fos mRNA expression at 25 uM pretreated for 6 hrs followed by PTZ-stimulation and measured after 30 mins by qRT-PCR analysis (reference value: 8.91 +/- 0.54%); assay type: functional; conditions: time 6.5 hrs

## CC(C)=CCC/C(C)=C/C[C@@]1(CC=C(C)C)C(=O)C(O)=C(O)c2oc3c4c(cc(O)c3c(=O)c21)OC(C)(C)C=C4
Danio rerio [1]
  Activity: 1210 mm
[2]
  Activity: Toxic
[3]
  Activity: Toxic
[4]
  MNTC at 6 h: 50 µM
[5]
  Activity: Non-Toxic
[6]
  Activity: Toxic
Danio rerio [7]
  Activity: 25%
Danio rerio [8]
  Activity: 50%
Danio rerio [9]
  Activity: inactive
Danio rerio [10]
  Activity: 12.5 µM
[11]
  Ratio: 4
Danio rerio [12]
  Activity: 1.2 millimeter/sec
Danio rerio [13]
  Activity: 0.86 millimeter/sec
Danio rerio [14]
  Activity: 0.8 millimeter/sec
Danio rerio [15]
  Activity: 600.8 mm
Danio rerio [16]
  Activity: 557.9 mm
Danio rerio [17]
  Time: 18.46 s
Danio rerio [18]
  Time: 8.18 s
Danio rerio [19]
  Time: 7.32 s
Danio rerio [20]
  Activity: 287.3
Danio rerio [21]
  Activity: 153.5
Danio rerio [22]
  Activity: 142.3
Danio rerio [23]
  Activity: 0.89%
Danio rerio [24]
  Activity: 1.09%
Danio rerio [25]
  Activity: 3.31%
